# Assay results reported in US5061794A, “Cephalosporin derivatives, and antibacterial agents” (priority 1986, dated 1991).
# Where two headings read alike, the source gives them in different places.
# How the values were obtained:
# E. coli CSH(RE45) = test: microbe, parasite or virus in culture; format: cell-based; settings: Escherichia coli, 16 h, read-out: Minimum Inhibitory Concentration (MIC), *E. coli CSH(RE45), lactamase-producing strain; 10^6 CFU/ml
# Outline: (§1)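 MICs (μg/ml) were read after 16 hours at 37°C. Test strains, grown overnight in Mueller Hinton broth, were spotted at 10^6 CFU/ml onto Mueller Hinton agar plates containing the compounds at a range of concentrations.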
# E. coli CSH2 (RK1) = test: microbe, parasite or virus in culture; format: cell-based; settings: Escherichia coli, 16 h, read-out: Minimum Inhibitory Concentration (MIC), *E. coli CSH2 (RK1), lactamase-producing strain; 10^6 CFU/ml
# Outline: as §1
# E. cloacae 963 = test: in vitro antibacterial activity, agar plate dilution method (MIC); format: cell-based; settings: 10^6 CFU/ml
# Outline: as §1
# E. cloacae Nek 39 = test: as above; format: cell-based; settings: Enterobacter cloacae, NEK39, 16 h, read-out: Minimum Inhibitory Concentration (MIC), *E. cloacae Nek 39, lactamase-producing strain; 10^6 CFU/ml
# Outline: as §1
# E. coli GN5482 = test: as above; format: cell-based; settings: Escherichia coli, GN5482, 16 h
# Outline: as §1
# E. coli NIHJ JC2 = test: as above; format: cell-based; settings: Escherichia coli, NIHJJC2, 16 h, read-out: Minimum Inhibitory Concentration (MIC), E. coli NIHJ JC2, 10^6 CFU/ml, 37° C.
# Outline: as §1
# K. oxytoca GN10650 = test: as above; format: cell-based; settings: Klebsiella oxytoca, GN10650, 16 h, read-out: Minimum Inhibitory Concentration (MIC), *K. oxytoca GN10650, lactamase-producing strain; 10^6 CFU/ml
# Outline: as §1
# K. pneumoniae No. 42 = test: as above; format: cell-based; settings: Klebsiella pneumoniae, NO.42, 16 h, read-out: Minimum Inhibitory Concentration (MIC), *K. pneumoniae No. 42, lactamase-producing strain; 10^6 CFU/ml
# Outline: as §1
# K. pneumoniae PCI-602 = test: as above; format: cell-based; settings: Klebsiella pneumoniae, PCI602, 16 h, 10^6 CFU/ml
# Outline: as §1
# M. morganii GN5407 = test: as above; format: cell-based; settings: Morganella morganii, GN5407, 16 h, read-out: Minimum Inhibitory Concentration (MIC), *M. morganii GN5407, lactamase-producing strain; 10^6 CFU/ml
# Outline: as §1
# P. vulgaris HX-19 = test: as above; format: cell-based; settings: Proteus vulgaris, HX19, 16 h, read-out: Minimum Inhibitory Concentration (MIC)
# Outline: as §1
# P. vulgaris No. 33 = test: as above; format: cell-based; settings: Proteus vulgaris, NO.33, 16 h, read-out: Minimum Inhibitory Concentration (MIC), *P. vulgaris No. 33, lactamase-producing strain; 10^6 CFU/ml
# Outline: as §1
# S. aureus 209P NIHJ-JC1 = test: as above; format: cell-based; settings: Staphylococcus aureus, 16 h, read-out: Minimum Inhibitory Concentration (MIC)
# Outline: as §1
# S. marcescens IAM 1184 = test: as above; format: cell-based; settings: Serratia marcescens, IAM1184, 16 h, S. marcescens IAM 1184; 10^6 CFU/ml; read-out: Minimum Inhibitory Concentration (MIC)
# Outline: as §1
# S. marcescens No. 16-2 = test: as above; format: cell-based; settings: Serratia marcescens, NO.162, 16 h
# Outline: as §1
# Ps. aeruginosa AK 109 = test: as above; format: cell-based, Pseudomonas aeruginosa; settings: Pseudomonas aeruginosa, AK109, 16 h
# Outline: as §1
# Ps. aeruginosa AKR17 = test: as above; format: cell-based, Pseudomonas aeruginosa; settings: Pseudomonas aeruginosa
# Outline: as §1
# Ps. aeruginosa IF03445 = test: as above; format: cell-based, Pseudomonas aeruginosa; settings: Pseudomonas aeruginosa, IF03445, 16 h, read-out: Minimum Inhibitory Concentration (MIC), Ps. aeruginosa IF03445; 10^6 CFU/ml
# Outline: as §1
# Ps. cepacia 23 = test: as above; format: cell-based, Pseudomonas cepacia; settings: Burkholderia cepacia, 16 h; Ps. cepacia 23; 10^6 CFU/ml; read-out: Minimum Inhibitory Concentration (MIC)
# Outline: as §1
# A. calcoaceticus No. 4 = test: as above; format: cell-based, Acinetobacter calcoaceticus; settings: Acinetobacter calcoaceticus, NO.4, 16 h, 10^6 CFU/ml
# Outline: as §1
# [1] = Enterobacter cloacae, 963, 16 h, read-out: Minimum Inhibitory Concentration (MIC), E. cloacae 963
# [2] = read-out: Minimum Inhibitory Concentration (MIC), *E. coli GN5482, lactamase-producing strain, 10^6 CFU/ml
# [3] = read-out: Minimum Inhibitory Concentration (MIC), K. pneumoniae PCI-602
# [4] = read-out: Minimum Inhibitory Concentration (MIC)
# [5] = A. calcoaceticus No. 4, read-out: Minimum Inhibitory Concentration (MIC)
# [6] = Enterobacter cloacae, 16 h, E. cloacae 963, read-out: Minimum Inhibitory Concentration (MIC)
# [7] = S. aureus 209P NIHJ-JC1, 10^6 CFU/ml, 37° C., 16 hours
# [8] = AKR17, 16 h, read-out: Minimum Inhibitory Concentration (MIC)
# [9] = read-out: Minimum Inhibitory Concentration (MIC), A. calcoaceticus No. 4
# [10] = K. pneumoniae PCI-602, read-out: Minimum Inhibitory Concentration (MIC)
# [11] = read-out: Minimum Inhibitory Concentration (MIC), *S. marcescens No. 16-2, lactamase-producing strain, 10^6 CFU/ml
# [12] = read-out: Minimum Inhibitory Concentration (MIC), Ps. aeruginosa AK 109, 10^6 CFU/ml
structure (smiles),measurement,setting,value
"Nc1nc(/C(=N/OC(C(=O)O)c2ccc(O)c(O)c2)C(=O)N[C@@H]2C(=O)N3C(C(=O)O)=C(CSc4ncc(-c5ccc(O)c(O)c5)o4)CS[C@H]23)cs1 (stereo partly drawn) [Ex. 65, disodium 7β-(2-(2-aminothiazol-4-yl)-2-[(α-carboxylate-3,4-dihydroxybenzyl)oxyiminol]-acetamido}-3-[5-(3,4-dihydroxyphenyl)oxazol-2-yl]-thiomethyl-3-cephem-4-carboxylate]",MIC,E. coli CSH(RE45),0.05 µg/mL
same,MIC,E. coli CSH2 (RK1),0.05 µg/mL
same,MIC,E. cloacae 963; [1],0.78 µg/mL
same,MIC,E. cloacae Nek 39,0.78 µg/mL
same,MIC,E. coli GN5482; [2],6.25 µg/mL
same,MIC,E. coli NIHJ JC2,1.56 µg/mL
same,MIC,K. oxytoca GN10650,0.2 µg/mL
same,MIC,K. pneumoniae No. 42,0.2 µg/mL
same,MIC,K. pneumoniae PCI-602; [3],< 0.006 µg/mL
same,MIC,M. morganii GN5407,0.2 µg/mL
same,MIC,"P. vulgaris HX-19; P. vulgaris HX-19, 10^6 CFU/ml",0.1 µg/mL
same,MIC,P. vulgaris No. 33,0.1 µg/mL
same,MIC,S. aureus 209P NIHJ-JC1,3.12 µg/mL
same,MIC,S. marcescens IAM 1184,0.2 µg/mL
same,MIC,S. marcescens No. 16-2; [4],12.5 µg/mL
same,MIC,Ps. aeruginosa AK 109; [4],0.39 µg/mL
same,MIC,"Ps. aeruginosa AKR17; 16 h, Ps. aeruginosa AKR17, 10^6 CFU/ml, read-out: Minimum Inhibitory Concentration (MIC)",0.2 µg/mL
same,MIC,Ps. aeruginosa IF03445,1.56 µg/mL
same,MIC,Ps. cepacia 23,< 0.006 µg/mL
same,MIC,A. calcoaceticus No. 4; [5],0.05 µg/mL
"Nc1nc(/C(=N/OC2(C(=O)O)CC2)C(=O)N[C@@H]2C(=O)N3C(C(=O)O)=C(CSc4ncc(-c5ccc(O)c(O)c5)o4)CS[C@H]23)cs1 [Ex. 66, disodium 7β-[2-(2-aminothiazol-4-yl)-2-(1-carboxylate-1-cyclopropoxyimino)acetamido]-3-[5-(3,4-dihydroxyphenyl)oxazol-2-yl]thiomethyl-3-cephem-4-carboxylate]",MIC,E. coli CSH(RE45),0.05 µg/mL
same,MIC,E. coli CSH2 (RK1),0.0125 µg/mL
same,MIC,E. cloacae 963; [6],0.2 µg/mL
same,MIC,E. cloacae Nek 39,0.1 µg/mL
same,MIC,E. coli GN5482; [2],1.56 µg/mL
same,MIC,E. coli NIHJ JC2,0.78 µg/mL
same,MIC,K. oxytoca GN10650,0.1 µg/mL
same,MIC,K. pneumoniae No. 42,0.1 µg/mL
same,MIC,K. pneumoniae PCI-602; [3],< 0.006 µg/mL
same,MIC,M. morganii GN5407,0.1 µg/mL
same,MIC,P. vulgaris HX-19,0.0125 µg/mL
same,MIC,P. vulgaris No. 33,0.025 µg/mL
same,MIC,S. aureus 209P NIHJ-JC1; [7],25 µg/mL
same,MIC,S. marcescens IAM 1184,0.05 µg/mL
same,MIC,S. marcescens No. 16-2; [4],3.12 µg/mL
same,MIC,Ps. aeruginosa AK 109; [4],0.39 µg/mL
same,MIC,Ps. aeruginosa AKR17; [8],3.12 µg/mL
same,MIC,Ps. aeruginosa IF03445,0.78 µg/mL
same,MIC,Ps. cepacia 23,< 0.006 µg/mL
same,MIC,A. calcoaceticus No. 4; [9],0.1 µg/mL
"CC(C)(ON=C(C(=O)NC1C(=O)N2C(C(=O)O)=C(CSc3nc(-c4ccc(O)c(O)c4)c(CC(=O)O)s3)CSC12)c1csc(N)n1)C(=O)O (stereo not drawn) [Example 59 (I), trisodium 7β-[2-(2-aminothiazol-4-yl)-2-(1-carboxylate-1-methylethoxyimino)acetamido]-3-[4-(3,4-dihydroxyphenyl)-5-carboxylatemethylthiazol-2yl]thiomethyl-3-cephem-4-carboxylate]",MIC,E. coli CSH(RE45),0.05 µg/mL
same,MIC,E. coli CSH2 (RK1),0.025 µg/mL
same,MIC,E. cloacae 963; [1],0.39 µg/mL
same,MIC,E. cloacae Nek 39,0.2 µg/mL
same,MIC,E. coli GN5482; [2],1.56 µg/mL
same,MIC,E. coli NIHJ JC2,1.56 µg/mL
same,MIC,K. oxytoca GN10650,0.1 µg/mL
same,MIC,K. pneumoniae No. 42,0.2 µg/mL
same,MIC,K. pneumoniae PCI-602; [10],0.0125 µg/mL
same,MIC,M. morganii GN5407,0.1 µg/mL
same,MIC,"P. vulgaris HX-19; P. vulgaris HX-19, 10^6 CFU/ml",0.025 µg/mL
same,MIC,P. vulgaris No. 33,0.1 µg/mL
same,MIC,S. aureus 209P NIHJ-JC1; [7],100 µg/mL
same,MIC,S. marcescens IAM 1184,0.2 µg/mL
same,MIC,S. marcescens No. 16-2; [11],1.56 µg/mL
same,MIC,Ps. aeruginosa AK 109; [12],1.56 µg/mL
same,MIC,"Ps. aeruginosa AKR17; AKR17, 16 h, read-out: Minimum Inhibitory Concentration (MIC), Ps. aeruginosa AKR17, 10^6 CFU/ml",1.56 µg/mL
same,MIC,Ps. aeruginosa IF03445,1.56 µg/mL
same,MIC,Ps. cepacia 23,< 0.006 µg/mL
same,MIC,A. calcoaceticus No. 4; [5],0.2 µg/mL
"Nc1nc(C(=NOC2(C(=O)O)CC2)C(=O)NC2C(=O)N3C(C(=O)O)=C(CSc4nc(-c5ccc(O)c(O)c5)c(CC(=O)O)s4)CSC23)cs1 (stereo not drawn) [Example 60 (I), trisodium 7β-[2-(2-aminothiazol-4-yl)-2-(1-carboxylate-1-cyclopropoxyimino)acetamido]-3-[4-(3,4-dihydroxyphenyl)-5-carboxylatemethylthiazol-2-yl]thiomethyl-3-cephem-4-carboxylate]",MIC,E. coli CSH(RE45),3.12 µg/mL
same,MIC,E. coli CSH2 (RK1),0.05 µg/mL
same,MIC,E. cloacae 963; [1],0.78 µg/mL
same,MIC,E. cloacae Nek 39,0.39 µg/mL
same,MIC,E. coli GN5482; [4],3.12 µg/mL
same,MIC,E. coli NIHJ JC2,1.56 µg/mL
same,MIC,K. oxytoca GN10650,0.39 µg/mL
same,MIC,K. pneumoniae No. 42,0.39 µg/mL
same,MIC,K. pneumoniae PCI-602; [10],0.025 µg/mL
same,MIC,M. morganii GN5407,0.39 µg/mL
same,MIC,"P. vulgaris HX-19; P. vulgaris HX-19, 10^6 CFU/ml",0.025 µg/mL
same,MIC,P. vulgaris No. 33,0.1 µg/mL
same,MIC,S. aureus 209P NIHJ-JC1; [7],50 µg/mL
same,MIC,S. marcescens IAM 1184,0.2 µg/mL
same,MIC,S. marcescens No. 16-2; [4],3.12 µg/mL
same,MIC,Ps. aeruginosa AK 109; [12],1.56 µg/mL
same,MIC,Ps. aeruginosa AKR17; [8],3.12 µg/mL
same,MIC,Ps. aeruginosa IF03445,1.56 µg/mL
same,MIC,Ps. cepacia 23,0.0125 µg/mL
same,MIC,A. calcoaceticus No. 4; [9],0.78 µg/mL
"CC(=O)Oc1ccc(-c2nc(SCC3=C(C(=O)O)N4C(=O)C(NC(=O)C(=NOC5(C(=O)O)CC5)c5csc(N)n5)C4SC3)sc2CC(=O)O)cc1OC(C)=O (stereo not shown) [Example 60 (II), trisodium 3-[4-(3,4-diacetoxyphenyl)-5-carboxylate-methylthiazol-2-yl]thiomethyl-78-[2-(2-aminothiazol-4-yl)-2-(1-carboxylate-1-cyclopropoxyimino)acetamido]-3-cephem-4-carboxylate]",MIC,E. coli CSH(RE45),3.12 µg/mL
same,MIC,E. coli CSH2 (RK1),0.0125 µg/mL
same,MIC,E. cloacae 963; [6],0.2 µg/mL
same,MIC,E. cloacae Nek 39,0.2 µg/mL
same,MIC,E. coli GN5482; [2],0.78 µg/mL
same,MIC,E. coli NIHJ JC2,0.78 µg/mL
same,MIC,K. oxytoca GN10650,0.1 µg/mL
same,MIC,K. pneumoniae No. 42,0.1 µg/mL
same,MIC,K. pneumoniae PCI-602; [3],< 0.006 µg/mL
same,MIC,M. morganii GN5407,0.1 µg/mL
same,MIC,"P. vulgaris HX-19; P. vulgaris HX-19, 10^6 CFU/ml",< 0.006 µg/mL
same,MIC,P. vulgaris No. 33,0.025 µg/mL
same,MIC,S. aureus 209P NIHJ-JC1; [7],25 µg/mL
same,MIC,S. marcescens IAM 1184,0.05 µg/mL
same,MIC,S. marcescens No. 16-2; [11],0.78 µg/mL
same,MIC,Ps. aeruginosa AK 109; [12],1.56 µg/mL
same,MIC,Ps. aeruginosa AKR17; [8],3.12 µg/mL
same,MIC,Ps. aeruginosa IF03445,0.78 µg/mL
same,MIC,Ps. cepacia 23,< 0.006 µg/mL
same,MIC,A. calcoaceticus No. 4; [9],0.1 µg/mL
